# Experimental data from publication PMC11357054, “Azobenzenesulfonamide Carbonic Anhydrase Inhibitors as New Weapons to Fight Helicobacter pylori: Synthesis, Bioactivity Evaluation, In Vivo Toxicity, and Computational Studies” (Pharmaceuticals, 2024).
# Read-outs that look alike come from different tables or passages of the source.
# Key:
# hCA I [1] = target: T1, hCA I (Homo sapiens, UniProt P00915); assay: stopped-flow CO2 hydration; assay type: biochemical; details: read-out: KI (nM) * / Human Isoforms / hCA I
# T1 construct: gene CA1; purchased from Merck
# Description: stopped-flow CO2 hydration on hCA I
# hCA II [2] = target: T2, hCA II (Homo sapiens, UniProt P00918); assay: stopped-flow CO2 hydration; assay type: biochemical; details: read-out: KI (nM) * / Human Isoforms / hCA II
# T2 construct: gene CA2; purchased from Merck
# Description: stopped-flow CO2 hydration on hCA II
# hCA IX [3] = target: T3, hCA IX (Homo sapiens, UniProt Q16790); assay: stopped-flow CO2 hydration; assay type: biochemical; details: read-out: KI (nM) * / Human Isoforms / hCA IX
# T3 construct: gene CA9
# Description: stopped-flow CO2 hydration on hCA IX
# PgiγCA = target: T4, PgiγCA; assay: stopped-flow CO2 hydration; assay type: biochemical, Porphyromonas gingivalis; details: pH […] HEPES, […] Na2SO4, […] min preincubation, r.t.; read-out: KI (nM) * / Bacterial Isoforms / Pgi γCA
# T4 construct: gene PgiCA; recombinant, obtained in-house
# HpαCA = target: T5, HpαCA (Helicobacter pylori, UniProt B5Z8I0); assay: stopped-flow CO2 hydration; assay type: biochemical
# T5 construct: gene HPG27_1129; recombinant, obtained in-house; PDB 4XFW is given for docking only
# T5 sequence (B5Z8I0 22-247): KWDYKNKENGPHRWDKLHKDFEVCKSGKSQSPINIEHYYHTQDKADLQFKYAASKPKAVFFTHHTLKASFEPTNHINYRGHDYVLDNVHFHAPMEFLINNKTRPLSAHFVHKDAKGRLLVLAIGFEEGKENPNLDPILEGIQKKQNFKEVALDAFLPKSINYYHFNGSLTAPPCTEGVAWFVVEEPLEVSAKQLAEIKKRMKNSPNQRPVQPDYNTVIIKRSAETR
# EcoβCA [4] = target: T6, EcoβCA (Escherichia coli, UniProt P61517); assay: stopped-flow CO2 hydration; assay type: biochemical; details: read-out: KI (nM) * / Bacterial Isoforms / Eco βCA
# T6 construct: gene can; recombinant, obtained in-house
# hCA XII [5] = target: T7, hCA XII (Homo sapiens, UniProt O43570); assay: stopped-flow CO2 hydration; assay type: biochemical; details: read-out: KI (nM) * / Human Isoforms / hCA XII
# T7 construct: gene CA12
# Description: stopped-flow CO2 hydration on hCA XII
# HpβCA = target: T8, HpβCA (Helicobacter pylori, UniProt Q9ZN54); assay: stopped-flow CO2 hydration; assay type: biochemical; details: read-out: KI (nM) * / Bacterial Isoforms / Hp βCA
# T8 construct: gene cynT; recombinant, obtained in-house
# T8 sequence (Q9ZN54 1-221): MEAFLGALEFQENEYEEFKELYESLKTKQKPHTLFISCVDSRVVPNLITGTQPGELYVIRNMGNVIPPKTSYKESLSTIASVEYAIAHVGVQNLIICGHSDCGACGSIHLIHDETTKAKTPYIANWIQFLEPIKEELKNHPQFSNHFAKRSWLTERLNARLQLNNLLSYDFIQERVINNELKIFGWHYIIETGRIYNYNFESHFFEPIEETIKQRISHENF
# PsCA3 [6] = target: T9, PsCA3 (Pseudomonas aeruginosa, UniProt Q9HVB9); assay: stopped-flow CO2 hydration; assay type: biochemical; details: read-out: KI (nM) * / Bacterial Isoforms / Ps CA3
# T9 construct: gene PA4676; recombinant, obtained in-house
# T9 sequence (Q9HVB9 1-215): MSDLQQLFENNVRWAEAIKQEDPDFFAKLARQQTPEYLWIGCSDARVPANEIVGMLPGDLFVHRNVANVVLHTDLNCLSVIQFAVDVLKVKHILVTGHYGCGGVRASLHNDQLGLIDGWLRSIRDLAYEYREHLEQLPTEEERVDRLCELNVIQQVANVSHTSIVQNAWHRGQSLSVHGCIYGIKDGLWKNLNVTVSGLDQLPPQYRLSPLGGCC
# PgiβCA = target: T10, PgiβCA; assay: stopped-flow CO2 hydration; assay type: biochemical, Porphyromonas gingivalis; details: pH […] HEPES, […] Na2SO4, […] min preincubation, r.t.; read-out: KI (nM) * / Bacterial Isoforms / Pgi βCA
# T10 construct: gene PgiCAb; recombinant, obtained in-house
# H. pylori ATCC 43504 = test system: T11, H. pylori ATCC 43504; assay: microbe, parasite or virus in culture; parameters: species or system Helicobacter pylori ATCC 43504; MIC by broth microdilution, alamarBlue and CFU count; MBC by CFU count; details: Helicobacter pylori, ATCC43504
# T11 construct: ATCC 43504
# Procedure: H. pylori ATCC 43504 was cultured on a Columbia Agar base (Becton Dickinson and Company, Franklin Lakes, NJ, USA) supplemented with 10% horse serum (Merck, St. Louis, MO, USA) and 0.25% yeast extract (Oxoid Ltd., Hampshire, UK), incubated at 37 °C for 72 h in a microaerophilic atmosphere (CampyGen, Thermo Fisher Scientific, Milan, Italy). Colonies were collected and transferred into 10 mL of Brain Heart Infusion broth (BHI, Oxoid Ltd., Hampshire, UK) supplemented with 5% (v/v) of fetal bovine serum (FBS, Merck, Milan, Italy) and incubated overnight at 37 °C, at 125 rpm under microaerophilic conditions. After 18 h of incubation, the broth culture was diluted to obtain a bacterial suspension of 10^6 CFU/mL. MICs were determined by three different assays: the broth micro-dilution method, the alamarBlue assay, and the CFU count. […] This bacterium was selected based on the inhibitory potency evidenced by the two series of azobenzenesulfonamides against the HpCAs.
# EcoβCA [7] = target: T6, EcoβCA; assay: biochemical; details: read-out: Bacterial Isoforms / Eco βCA
# Procedure: (§1) An Applied Photophysics stopped-flow instrument was used to evaluate the ability of the test compounds to inhibit CA-catalyzed CO2 hydration. […] The CO2 concentrations ranged from 1.7 to 17 mM for the determination of the kinetic parameters and inhibition constants. Enzyme concentrations spanned from 5 to 12 nM. Stock solutions of the inhibitor (0.1 mM) were prepared in distilled–deionized water, and dilutions up to 0.01 nM were prepared with the assay buffer. Inhibitor and enzyme solutions were preincubated for 15 min at r.t. for the formation of the E–I complex. The inhibition constants were obtained by non-linear least-squares methods using PRISM 3 and the Cheng–Prusoff equation and represent the mean from at least three different determinations. Apart from human CAs I and II purchased from Merck, all the bacterial CAs were recombinant and obtained in-house. Compounds 4a–j and 5a–j were tested on a large panel of human and bacterial isoenzymes belonging to different CA families, evaluating their inhibitory activity through the CO2 hydration activity assay by means of the stopped-flow technique, and the inhibitory constants (KIs) are reported in Table 1 and Table 2, respectively. In particular, we tested the hypoxic tumor-associated hCAs IX and XII, and bacterial isoforms involved in several infectious diseases, such as those caused by H. pylori (HpαCA and HpβCA), Porphyromonas gingivalis (PgiβCA and PgiγCA), Escherichia coli (EcoβCA), Pseudomonas aeruginosa (PsCA3, belonging to the β-class), Mammaliicoccus (Staphylococcus) sciuri (MscCA, belonging to the β-class), and Streptococcus mutans (SmuCA, belonging to the β-class). The inhibition of human physiologically relevant isoforms I and II was also investigated in order to assess the compounds’ selectivity. Our main aim was to rationalize the structural requirements of sulfonamide-containing compounds useful for targeting HpCAs, in order to gain a larger knowledge for further optimization studies focusing on isoform selectivity. In fact, although the tested human and bacterial isoforms present a low degree of sequence similarity, they catalyze the same reaction and contain the catalytically active zinc ion in the active site. Thus, a comparison of the data obtained from different members of this large superfamily has a high relevance in the field. By observing Table 1 and Table 2, interesting structure–activity relationship (SAR) considerations can be inferred.
# PsCA3 [8] = target: T9, PsCA3; assay: biochemical; details: read-out: Bacterial Isoforms / Ps CA3
# Procedure: as §1
# hCA I [9] = target: T1, hCA I; assay: biochemical; details: read-out: Human Isoforms / hCA I
# Procedure: as §1
# hCA II [10] = target: T2, hCA II; assay: biochemical; details: read-out: Human Isoforms / hCA II
# Procedure: as §1
# hCA IX [11] = target: T3, hCA IX; assay: biochemical; details: read-out: Human Isoforms / hCA IX
# Procedure: as §1
# hCA XII [12] = target: T7, hCA XII; assay: biochemical; details: read-out: Human Isoforms / hCA XII
# Procedure: as §1
# [13] = read-out: KI (nM) * / Bacterial Isoforms / Hp αCA
# [14] = read-out: KI (nM) / Bacterial Isoforms / Hp αCA
# T7 sequence (O43570 30-289 limits assumed): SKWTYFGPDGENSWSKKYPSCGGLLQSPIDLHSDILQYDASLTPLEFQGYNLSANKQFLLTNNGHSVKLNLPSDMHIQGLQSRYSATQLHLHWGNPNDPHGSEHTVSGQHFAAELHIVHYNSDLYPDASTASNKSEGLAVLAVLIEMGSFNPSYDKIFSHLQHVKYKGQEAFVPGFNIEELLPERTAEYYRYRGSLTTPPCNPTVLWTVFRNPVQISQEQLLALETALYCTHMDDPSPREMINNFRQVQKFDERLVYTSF
# T6 sequence (P61517 whole entry, canonical isoform): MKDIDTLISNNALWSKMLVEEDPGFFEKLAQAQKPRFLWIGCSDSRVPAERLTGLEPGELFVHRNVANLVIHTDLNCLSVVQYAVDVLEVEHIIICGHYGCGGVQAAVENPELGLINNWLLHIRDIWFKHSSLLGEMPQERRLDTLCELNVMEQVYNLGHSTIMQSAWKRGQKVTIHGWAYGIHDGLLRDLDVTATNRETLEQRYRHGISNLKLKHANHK
# T1 sequence (P00915 2-261): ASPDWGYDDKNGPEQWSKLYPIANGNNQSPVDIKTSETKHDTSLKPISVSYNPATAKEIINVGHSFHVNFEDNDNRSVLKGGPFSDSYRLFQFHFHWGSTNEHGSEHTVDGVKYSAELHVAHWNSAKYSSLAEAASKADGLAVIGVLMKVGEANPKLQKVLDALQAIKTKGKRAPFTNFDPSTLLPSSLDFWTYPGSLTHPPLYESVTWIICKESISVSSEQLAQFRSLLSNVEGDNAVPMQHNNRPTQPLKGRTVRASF
Compound,Ki (hCA I [1]) [nM],Ki (hCA II [2]) [nM],Ki (hCA IX [3]) [nM],Ki (PgiγCA) [nM],Ki (HpαCA; [13]) [nM],Ki (EcoβCA [4]) [nM],Ki (hCA XII [5]) [nM],Ki (HpβCA) [nM],Ki (PsCA3 [6]) [nM],Ki (PgiβCA) [nM],MBC (H. pylori ATCC 43504) [µg/mL],MIC (H. pylori ATCC 43504) [µg/mL],Ki (HpαCA; [14]) [nM],Ki (EcoβCA [7]) [µM],Ki (PsCA3 [8]) [µM],Ki (hCA I [9]) [µM],Ki (hCA II [10]) [µM],Ki (hCA IX [11]) [µM],Ki (hCA XII [12]) [µM]
"Cc1cc(/N=N/c2ccc(S(N)(=O)=O)cc2)c(C)cc1O [4f, (E)-4-((4-hydroxy-2,5-dimethylphenyl)diazenyl)benzenesulfonamide]",5.7,1.9,97.1,472,69.4,867,56.7,70.6,191,3760,32,32,,,,,,,
"Cc1cc(O)cc(C)c1/N=N/c1ccc(S(N)(=O)=O)cc1 [4g, (E)-4-((4-hydroxy-2,6-dimethylphenyl)diazenyl)benzenesulfonamide]",4.9,3.7,171,939,142,550,63.9,74.3,879,3670,32,16,,,,,,,
"Cc1ccc(O)c(/N=N/c2ccc(S(N)(=O)=O)cc2)c1 [4h, (E)-4-((2-hydroxy-5-methylphenyl)diazenyl)benzenesulfonamide]",68.4,6.6,184,772,130,360,9.6,127,980,3850,64,32,,,,,,,
"Cc1cc(/N=N/c2ccc(S(N)(=O)=O)cc2)ccc1O [4i, (E)-4-((4-hydroxy-3-methylphenyl)diazenyl)benzenesulfonamide]",4.4,3.4,181,6330,140,2110,7.5,119,114,2070,64,32,,,,,,,
"Cc1cc(O)ccc1/N=N/c1ccc(S(N)(=O)=O)cc1 [4j, (E)-4-((4-hydroxy-2-methylphenyl)diazenyl)benzenesulfonamide]",5.3,4.7,213,914,72.2,3040,84.1,138,1840,5780,32,16,,,,,,,
O=S(=O)(Nc1ccc(N=Nc2ccccc2)cc1)c1ccccc1 [5a],,,,,,,,,,,32,16,460,6.95,9.28,0.209,> 100,3.98,0.955
N#Cc1ccc(S(=O)(=O)Nc2ccc(N=Nc3ccccc3)cc2)cc1 [5b],,,,,,,,,,,64,32,75.6,73.4,5.76,0.359,> 100,0.614,0.76
N#Cc1ccc(S(=O)(=O)Nc2ccc(N=Nc3ccccc3)cc2)c(Cl)c1 [5c],,,,,,,,,,,8,4,77.6,9.21,> 100,0.908,24.7,9.2,1.75
